From the supplement of paper PMC8612539
In brackets after ≈: the same amount, converted by molar mass.

Test system: Escherichia coli
Test: minimum inhibitory concentration (MIC)
Description: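 Broth microdilution MIC (Sensititre BOPO7F bovine plate, CLSI methods) of 19 antimicrobials against field isolates of P. multocida, M. haemolytica, H. somni (deep nasopharyngeal swabs) and E. coli, Enterococcus spp. (rectal swabs) from weaned dairy heifers. Incubation 16-24 h at 35 C. MIC is the lowest concentration preventing visible growth. Values with <= or > lie at the tested range limits. Trimethoprim-sulfamethoxazole is given as the trimethoprim component of a 1:19 mixture.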

CO/N=C(\C(=O)N[C@@H]1C(=O)N2C(C(=O)O)=C(CSC(=O)c3ccco3)CS[C@H]12)c1csc(N)n1 [Ceftiofur]
Details | minimum inhibitory concentration [µg/mL]
isolate (source animal id): 8 | 0.5 (≈ 0.955 µM)
isolate (source animal id): 9 | 1 (≈ 1.91 µM)
isolate (source animal id): 10 | ≤ 0.25
isolate (source animal id): 11 | ≤ 0.25
isolate (source animal id): 12 | 0.5 (≈ 0.955 µM)
isolate (source animal id): 13 | > 8
isolate (source animal id): 14 | > 8
isolate (source animal id): 15 | ≤ 0.25
isolate (source animal id): 16 | 0.5 (≈ 0.955 µM)
isolate (source animal id): 98 | 0.5 (≈ 0.955 µM)
isolate (source animal id): 99 | 0.5 (≈ 0.955 µM)
isolate (source animal id): 100 | ≤ 0.25
isolate (source animal id): 101 | ≤ 0.25
isolate (source animal id): 102 | 0.5 (≈ 0.955 µM)
isolate (source animal id): 103 | 0.5 (≈ 0.955 µM)
isolate (source animal id): 104 | ≤ 0.25
isolate (source animal id): 105 | 0.5 (≈ 0.955 µM)
isolate (source animal id): 106 | 0.5 (≈ 0.955 µM)
isolate (source animal id): 107 | ≤ 0.25
isolate (source animal id): 108 | ≤ 0.25
isolate (source animal id): 109 | ≤ 0.25
isolate (source animal id): 110 | 0.5 (≈ 0.955 µM)
isolate (source animal id): 111 | ≤ 0.25
isolate (source animal id): 112 | ≤ 0.25
isolate (source animal id): 113 | 0.5 (≈ 0.955 µM)
isolate (source animal id): 114 | 0.5 (≈ 0.955 µM)
isolate (source animal id): 115 | 4 (≈ 7.64 µM)
isolate (source animal id): 116 | 0.5 (≈ 0.955 µM)
isolate (source animal id): 117 | ≤ 0.25
isolate (source animal id): 118 | 0.5 (≈ 0.955 µM)
isolate (source animal id): 119 | 1 (≈ 1.91 µM)
isolate (source animal id): 120 | 0.5 (≈ 0.955 µM)
isolate (source animal id): 121 | 0.5 (≈ 0.955 µM)
isolate (source animal id): 122 | 0.5 (≈ 0.955 µM)
isolate (source animal id): 123 | ≤ 0.25
isolate (source animal id): 124 | 0.5 (≈ 0.955 µM)
isolate (source animal id): 125 | 0.5 (≈ 0.955 µM)
isolate (source animal id): 126 | 0.5 (≈ 0.955 µM)
isolate (source animal id): 127 | 0.5 (≈ 0.955 µM)
isolate (source animal id): 128 | 8 (≈ 15.3 µM)
isolate (source animal id): 129 | 0.5 (≈ 0.955 µM)
isolate (source animal id): 130 | 0.5 (≈ 0.955 µM)
isolate (source animal id): 131 | 0.5 (≈ 0.955 µM)
isolate (source animal id): 132 | > 8
isolate (source animal id): 133 | 0.5 (≈ 0.955 µM)
isolate (source animal id): 134 | 0.5 (≈ 0.955 µM)
isolate (source animal id): 135 | 0.5 (≈ 0.955 µM)
isolate (source animal id): 136 | 0.5 (≈ 0.955 µM)
isolate (source animal id): 137 | 0.5 (≈ 0.955 µM)
isolate (source animal id): 138 | ≤ 0.25
isolate (source animal id): 139 | ≤ 0.25
isolate (source animal id): 140 | 0.5 (≈ 0.955 µM)
isolate (source animal id): 141 | 0.5 (≈ 0.955 µM)
isolate (source animal id): 142 | 0.5 (≈ 0.955 µM)
isolate (source animal id): 143 | 2 (≈ 3.82 µM)
isolate (source animal id): 144 | 8 (≈ 15.3 µM)
isolate (source animal id): 145 | 0.5 (≈ 0.955 µM)
isolate (source animal id): 146 | ≤ 0.25
isolate (source animal id): 147 | 8 (≈ 15.3 µM)
isolate (source animal id): 148 | ≤ 0.25
isolate (source animal id): 149 | ≤ 0.25
isolate (source animal id): 150 | 0.5 (≈ 0.955 µM)
isolate (source animal id): 151 | ≤ 0.25
isolate (source animal id): 152 | ≤ 0.25
isolate (source animal id): 153 | ≤ 0.25
isolate (source animal id): 154 | 0.5 (≈ 0.955 µM)
isolate (source animal id): 155 | ≤ 0.25
isolate (source animal id): 156 | 8 (≈ 15.3 µM)
isolate (source animal id): 157 | 0.5 (≈ 0.955 µM)
isolate (source animal id): 158 | 0.5 (≈ 0.955 µM)
isolate (source animal id): 159 | ≤ 0.25
isolate (source animal id): 160 | ≤ 0.25
isolate (source animal id): 161 | ≤ 0.25
isolate (source animal id): 162 | 8 (≈ 15.3 µM)
isolate (source animal id): 163 | 0.5 (≈ 0.955 µM)
isolate (source animal id): 164 | ≤ 0.25
isolate (source animal id): 165 | ≤ 0.25
isolate (source animal id): 166 | ≤ 0.25
isolate (source animal id): 167 | 0.5 (≈ 0.955 µM)
isolate (source animal id): 168 | ≤ 0.25
isolate (source animal id): 169 | 0.5 (≈ 0.955 µM)
isolate (source animal id): 170 | 0.5 (≈ 0.955 µM)
isolate (source animal id): 171 | 0.5 (≈ 0.955 µM)
isolate (source animal id): 172 | ≤ 0.25
isolate (source animal id): 173 | 0.5 (≈ 0.955 µM)
isolate (source animal id): 174 | 0.5 (≈ 0.955 µM)
isolate (source animal id): 175 | 0.5 (≈ 0.955 µM)
isolate (source animal id): 176 | 0.5 (≈ 0.955 µM)
isolate (source animal id): 177 | 8 (≈ 15.3 µM)
isolate (source animal id): 178 | 0.5 (≈ 0.955 µM)
isolate (source animal id): 179 | ≤ 0.25
isolate (source animal id): 180 | 0.5 (≈ 0.955 µM)
isolate (source animal id): 181 | ≤ 0.25
isolate (source animal id): 182 | 0.5 (≈ 0.955 µM)
isolate (source animal id): 183 | 0.5 (≈ 0.955 µM)
isolate (source animal id): 184 | 0.5 (≈ 0.955 µM)
isolate (source animal id): 185 | 0.5 (≈ 0.955 µM)
isolate (source animal id): 186 | 0.5 (≈ 0.955 µM)
isolate (source animal id): 187 | ≤ 0.25
isolate (source animal id): 188 | > 8

CCC[C@@H]1C[C@@H](C(=O)N[C@@H]([C@H]2O[C@H](SC)[C@H](O)[C@@H](O)[C@H]2O)[C@H](C)Cl)N(C)C1 [Clindamycin]
Details | minimum inhibitory concentration [µg/mL]
isolate (source animal id): 8 | > 16
isolate (source animal id): 9 | > 16
isolate (source animal id): 10 | > 16
isolate (source animal id): 11 | > 16
isolate (source animal id): 12 | > 16
isolate (source animal id): 13 | > 16
isolate (source animal id): 14 | > 16
isolate (source animal id): 15 | > 16
isolate (source animal id): 16 | > 16
isolate (source animal id): 98 | > 16
isolate (source animal id): 99 | > 16
isolate (source animal id): 100 | > 16
isolate (source animal id): 101 | > 16
isolate (source animal id): 102 | > 16
isolate (source animal id): 103 | > 16
isolate (source animal id): 104 | > 16
isolate (source animal id): 105 | > 16
isolate (source animal id): 106 | > 16
isolate (source animal id): 107 | > 16
isolate (source animal id): 108 | > 16
isolate (source animal id): 109 | > 16
isolate (source animal id): 110 | > 16
isolate (source animal id): 111 | > 16
isolate (source animal id): 112 | > 16
isolate (source animal id): 113 | > 16
isolate (source animal id): 114 | > 16
isolate (source animal id): 115 | > 16
isolate (source animal id): 116 | > 16
isolate (source animal id): 117 | > 16
isolate (source animal id): 118 | > 16
isolate (source animal id): 119 | > 16
isolate (source animal id): 120 | > 16
isolate (source animal id): 121 | > 16
isolate (source animal id): 122 | > 16
isolate (source animal id): 123 | > 16
isolate (source animal id): 124 | > 16
isolate (source animal id): 125 | > 16
isolate (source animal id): 126 | > 16
isolate (source animal id): 127 | > 16
isolate (source animal id): 128 | > 16
isolate (source animal id): 129 | > 16
isolate (source animal id): 130 | > 16
isolate (source animal id): 131 | > 16
isolate (source animal id): 132 | > 16
isolate (source animal id): 133 | > 16
isolate (source animal id): 134 | > 16
isolate (source animal id): 135 | > 16
isolate (source animal id): 136 | > 16
isolate (source animal id): 137 | > 16
isolate (source animal id): 138 | > 16
isolate (source animal id): 139 | > 16
isolate (source animal id): 140 | > 16
isolate (source animal id): 141 | > 16
isolate (source animal id): 142 | > 16
isolate (source animal id): 143 | > 16
isolate (source animal id): 144 | > 16
isolate (source animal id): 145 | > 16
isolate (source animal id): 146 | > 16
isolate (source animal id): 147 | > 16
isolate (source animal id): 148 | > 16
isolate (source animal id): 149 | > 16
isolate (source animal id): 150 | > 16
isolate (source animal id): 151 | > 16
isolate (source animal id): 152 | > 16
isolate (source animal id): 153 | > 16
isolate (source animal id): 154 | > 16
isolate (source animal id): 155 | > 16
isolate (source animal id): 156 | > 16
isolate (source animal id): 157 | > 16
isolate (source animal id): 158 | > 16
isolate (source animal id): 159 | > 16
isolate (source animal id): 160 | > 16
isolate (source animal id): 161 | > 16
isolate (source animal id): 162 | > 16
isolate (source animal id): 163 | > 16
isolate (source animal id): 164 | > 16
isolate (source animal id): 165 | > 16
isolate (source animal id): 166 | > 16
isolate (source animal id): 167 | > 16
isolate (source animal id): 168 | > 16
isolate (source animal id): 169 | > 16
isolate (source animal id): 170 | > 16
isolate (source animal id): 171 | > 16
isolate (source animal id): 172 | > 16
isolate (source animal id): 173 | > 16
isolate (source animal id): 174 | > 16
isolate (source animal id): 175 | > 16
isolate (source animal id): 176 | > 16
isolate (source animal id): 177 | > 16
isolate (source animal id): 178 | > 16
isolate (source animal id): 179 | > 16
isolate (source animal id): 180 | > 16
isolate (source animal id): 181 | > 16
isolate (source animal id): 182 | > 16
isolate (source animal id): 183 | > 16
isolate (source animal id): 184 | > 16
isolate (source animal id): 185 | > 16
isolate (source animal id): 186 | > 16
isolate (source animal id): 187 | > 16
isolate (source animal id): 188 | > 16
